Data: US10160867B2, “Benzoxaborole-containing coating resistant to cellulose-supportable fungus” (THE PENN STATE RESEARCH FOUNDATION, priority 2015, dated 2018)
Values after ≈ are worked out from the molar mass of the structure shown.

How the values were obtained:
Type in all cases: cell-based
Penicillium chrysogenum [1] = test: Fungus resistance test after painting over fungal growth (defacement rating); details: painted over fungal growth, +200 μg/mL in Valspar QuikHide paint
Text: (§1) In this series of experiments, fungal growth was allowed to cover a painted surface (surface containing 2 coats of the unaltered paint) to a defacement rating of 3-5, forming a ‘contaminated surface’. […] The paint application was extended approximately 1-2 cm beyond the edge of the disc onto the NSA medium. Each formulation used a separate brush to avoid cross contamination. The re-painted discs were placed back into the humid environment with elevated temperature to encourage fungal growth.
(§2) This test was used to evaluate the ability of paint films containing antifungal additives to prevent the re-emergence of fungal growth after painting over existing growth.
(§3) Olympic® Home interior flat latex paint (PPG Industries, Pittsburgh, Pa.) and Valspar® QuikHide White flat interior paint (Valspar Corporation, Minneapolis, Minn.) were used for the experiments in this study unless specified. Stock solutions of the antifungal additives of interest were prepared in reagent grade dimethyl sulfoxide (DMSO; Alfa Aesar, Ward Hill, Mass.). Additives were spiked (by adding appropriate amounts of the antifungal stock solutions) into the liquid paint at specified concentrations. Samples of additive-spiked paint were vigorously mixed with a vortex mixer for at least one minute to insure uniform dispersion of the additive in the paint. […] Studies that used other brands of paint followed the same protocol as described for those using the Olympic® Home interior flat latex paint.
(§4) Test surfaces were prepared in triplicate. In most cases, the tested conditions were repeated on a different date, again in triplicate. […] Two coats of paint were applied with a polyester brush to completely cover both faces of the filter paper disc, allowing at least four hours drying time between coats.
(§5) Nutrient-Salts Agar (NSA) media was prepared according to ASTM method G21-13 in 100×15 mm sterile polystyrene petri dishes (VWR® Radnor, Pa.) with a solidified agar layer from 3 to 6 mm (⅛ to ¼ in.) in depth. The agar was allowed to solidify for at least 24 hours before being used. The painted test filter paper discs were placed in the center of the agar plates in a biosafety hood while wearing clean nitrile gloves.
(§6) The paint coatings were evaluated against three representative fungi: Stachybotrys chartarum, Penicillium chrysogenum, and Alternaria alternata. […] Fungal isolates of Alternaria alternata and Penicillium chrysogenum were obtained from the Plant Pathology and Environmental Microbiology Department at Penn State University.
(§7) A spore suspension of each of these fungi was prepared by pouring a 20-mL portion of autoclaved deionized water containing 0.01% Tween® 20 onto a subculture of each fungal species. Spores were counted with the use of a hemocytometer (Hausser Scientific, Horsham, Pa.) under a microscope. Spore suspensions of Stachybotrys chartarum and Penicillium chrysogenum were diluted to 1×10^6 spores/mL with autoclaved deionized water. Spore suspensions of Alternaria alternata were used “as is” in the range of 200,000 to 400,000 spores/mL.
(§8) Painted test surfaces were inoculated with a spray bottle or with a cotton-tipped applicator. To inoculate the sample with a spray bottle, the spore suspension was sprayed twice on the painted test discs with a spray bottle that delivered approximately 0.14 g of fluid per spray. To inoculate the sample with a cotton-tipped applicator, an autoclaved cotton-tipped applicator was submerged in approximately 400 μL of the inoculum solution and applied evenly over the surface of the painted test surface twice.

Stachybotrys chartarum [2] = test: as above; details: for Average defacement rating ± standard deviation: painted over fungal growth, +100 μg/mL in Olympic Home paint; for ability to inhibit Stachybotrys chartarum re-emergence on the surfaces: painting over contaminated surfaces, paints containing 100 μg/mL, after 7 days
Text: as §1, §2, §3, §4, §5, §6, §7, §8

Alternaria alternata [3] = test: as above; details: painted over fungal growth, +100 μg/mL in Olympic Home paint
Text: as §1, §2, §3, §4, §5, §6, §7, §8

Penicillium chrysogenum [4] = test: Fungus resistance test for painted surfaces containing antifungal additives (defacement rating)
Description: (§9) A Defacement Rating is measured by estimating the percentage of surface defacement with 10 being no defacement and 0 begin completely defaced.
(§10) This test was used to evaluate the resistance of paint films containing antifungal additives to surface fungal growth.
(§11) Olympic® Home interior flat latex paint (PPG Industries, Pittsburgh, Pa.) and Valspar® QuikHide White flat interior paint (Valspar Corporation, Minneapolis, Minn.) were used for all studies unless otherwise noted. Stock solutions of the antifungal additives of interest were prepared in reagent grade dimethyl sulfoxide (DMSO; Alfa Aesar, Ward Hill, Mass.). Additives were spiked (by adding appropriate amounts of the antifungal stock solutions) into the liquid paint at specified concentrations. Samples of the additive-spiked paint were vigorously mixed with a vortex mixer for at least one minute to ensure uniform dispersion of the additive in the paint. […] Studies that use other brands of paint followed the same protocol as described for those using the Olympic® Home interior flat latex paint and Valspar® QuikHide paint.
as §4
(§12) Nutrient-Salts Agar (NSA) medium was prepared according to ASTM method G21-13 in 100×15 mm sterile polystyrene petri dishes (VWR® Radnor, Pa.) with a solidified agar layer of about 3 to about 6 mm (⅛ to ¼ in.) in depth. The agar was allowed to solidify for at least 24 hours before being used. The painted test filter paper discs were placed in the center of the agar plates in a biosafety hood while wearing clean nitrile gloves.
as §6, with “representative cellulose-supportable” for “representative”
(§13) A spore suspension of each of these fungi was prepared by pouring a 20-mL portion of autoclaved deionized water containing 0.01% Tween® 20 onto a subculture of each fungal species. Spores were counted with the use of a hemocytometer (Hausser Scientific, Horsham, Pa.) under a compound light microscope. Spore suspensions of Stachybotrys chartarum and Penicillium chrysogenum were diluted to 1×10^6 spores/mL with autoclaved deionized water. Spore suspensions of Alternaria alternata were used “as is” in the range of 200,000 to 400,000 spores/mL.
(§14) Painted test surfaces were inoculated with a spray bottle or with a sterile cotton-tipped applicator. To inoculate the sample with a spray bottle, the spore suspension was sprayed twice on the painted test discs with an autoclaved spray bottle that delivered approximately 0.14 g of fluid per spray. To inoculate the sample with a cotton-tipped applicator, an autoclaved cotton-tipped applicator was submerged in approximately 400 μL of the spore inoculum solution (spore concentrations described above) and applied evenly over the surface of the painted test surface twice. A fresh autoclaved cotton-tipped applicator was used for the application of each painted disc. All the paint studies with Alternaria alternata and Stachybotrys chartarum were inoculated using the spray bottle method. For studies with Penicillium chrysogenum using Olympic® Home paint, the spray bottle inoculation method was used. For studies with Penicillium chrysogenum using Valspar® QuikHide paint, the cotton-tipped applicator inoculation method was used.
(§15) After inoculation, the NSA agar plates were sealed with Parafilm®.

Stachybotrys chartarum [5] = test: as above; details: +100 μg/mL in Olympic Home paint
Description: as §9, §10, §11, §4, §12
as §6, with “representative cellulose-supportable” for “representative”
as §13, §14, §15

Alternaria alternata [6] = test: as above; details: +100 μg/mL in Olympic Home paint
Description: as §9, §10, §11, §4, §12
as §6, with “representative cellulose-supportable” for “representative”
as §13, §14, §15

Mucor spp. = test: 3 day MIC, broth microdilution in 25% PDB; details: 72 h
Description: (§16) Stock solutions (concentrations of between 4,000 μg/mL to 10,000 μg/mL; stored at −18° C.) of the above antifungals were prepared in dimethyl sulfoxide (DMSO). The stock solutions were further diluted into sterile 25% potato dextrose broth (PDB) so that the diluted solutions could be used for the antifungal susceptibility studies. This way, a typical microdilution study would reach a final ratio of about 0.5-2% v/v of DMSO in 25% PDB.
(§17) Spore inocula were prepared in sterile distilled water with 0.1% Tween® 20 (a polysorbate surfactant), and a hemocytometer was used to determine the spore density. Typically, the spore inoculum was prepared fresh prior to each study, and the inoculum was appropriately diluted to a final concentration of 0.4-1×10^5 spores/mL or colony-forming unit (CFU)/mL in each study. The spore suspension can be stored in a refrigerator at 4° C. for up to one week.
(§18) The minimal inhibitory concentrations (MICs) for individual antifungal agents were determined by following a modified broth microdilution protocol CLSI (Clinical and Laboratory Standards Institute) M38-A2 [Clinical and Laboratory Standards Institute (2008) Reference method for broth dilution antifungal susceptibility testing of filamentous fungi—2nd edition: Approved Standard M38-A2, CLSI, Wayne, Pa.] where 25% potato dextrose broth (PDB) was used as the medium. The studies were performed in flat bottom, 96-well microtiter plates (Greiner Bio-One, Frickenhausen, Germany).
(§19) Plates sealed with clear polyester film (VWR, Radnor, Pa.) were incubated at a temperature of about 25° C. The progress of fungal growth was monitored at 48 hours and 72 hours.

Fusarium oxysparum ST-33 = test: 3 day MIC, broth microdilution in 25% PDB; details: ST33, 72 h
Description: as §16, §17, §18, §19

Aspergillus niger = test: 3 day MIC, broth microdilution in 25% PDB; details: 72 h
Description: as §16, §17, §18, §19

Aspergillus flavus = test: 3 day MIC, broth microdilution in 25% PDB; details: 72 h
Description: as §16, §17, §18, §19

Aspergillus fumigatus = test: 3 day MIC, broth microdilution in 25% PDB; details: 72 h
Description: as §16, §17, §18, §19

Rhizopus spp. = test: 3 day MIC, broth microdilution in 25% PDB; details: 72 h
Description: as §16, §17, §18, §19

Aureobasidium pullulans = test: 3 day MIC, broth microdilution in 25% PDB; details: 72 h
Description: as §16, §17, §18, §19

Stachybotrys chartarum [7] = test: 3 day MIC, broth microdilution in 25% PDB; details: 72 h, 25% PDB, read-out: 3 day MIC
Description: as §16, §17
(§20) The studies were performed in flat bottom, 96-well microtiter plates (Greiner Bio-One, Frickenhausen, Germany).
as §19

Alternaria alternata [8] = test: 3 day MIC, broth microdilution in 25% PDB; details: 72 h, 25% PDB, read-out: 3 day MIC
Description: as §16, §17, §20, §19

OB1OCc2ccccc21 [Compound B0, 2-(hydroxymethyl)-benzene boronic acid hemiester]
Average defacement rating ± standard deviation (Penicillium chrysogenum [1]; 7 days): 0.0 ± 0.0 (9)
Average defacement rating ± standard deviation (Penicillium chrysogenum [1]; 14 days): 0.0 ± 0.0 (9)
Average defacement rating ± standard deviation (Penicillium chrysogenum [1]; 21 days): 0.0 ± 0.0 (9)
Average defacement rating ± standard deviation (Stachybotrys chartarum [2]; 7 days): 6.1 ± 3.3 (9)
Average defacement rating ± standard deviation (Stachybotrys chartarum [2]; 14 days): 4.4 ± 3.0 (9)
Average defacement rating ± standard deviation (Stachybotrys chartarum [2]; 21 days): 3.9 ± 2.9 (9)
Average defacement rating ± standard deviation (Alternaria alternata [3]; 7 days): 2.1 ± 1.6 (6)
Average defacement rating ± standard deviation (Alternaria alternata [3]; 14 days): 1.0 ± 1.3 (6)
Average defacement rating ± standard deviation (Alternaria alternata [3]; 21 days): 0.4 ± 0.6 (6)
Average defacement rating ± standard deviation (Penicillium chrysogenum [4]; +100 μg/mL in Olympic Home paint, 7 days): 2.7 ± 0.8
Average defacement rating ± standard deviation (Penicillium chrysogenum [4]; +100 μg/mL in Olympic Home paint, 14 days): 0.0 ± 0.0
Average defacement rating ± standard deviation (Penicillium chrysogenum [4]; +100 μg/mL in Olympic Home paint, 21 days): 0.0 ± 0.0
Average defacement rating ± standard deviation (Penicillium chrysogenum [4]; +200 μg/mL in Olympic Home paint, 7 days): 10.0 ± 0.0
Average defacement rating ± standard deviation (Penicillium chrysogenum [4]; +200 μg/mL in Olympic Home paint, 14 days): 6.8 ± 4.0
Average defacement rating ± standard deviation (Penicillium chrysogenum [4]; +200 μg/mL in Olympic Home paint, 21 days): 5.0 ± 5.5
Average defacement rating ± standard deviation (Penicillium chrysogenum [4]; +200 μg/mL in Valspar QuikHide paint, 7 days): 10.0 ± 0.0
Average defacement rating ± standard deviation (Penicillium chrysogenum [4]; +200 μg/mL in Valspar QuikHide paint, 14 days): 6.8 ± 4.0
Average defacement rating ± standard deviation (Penicillium chrysogenum [4]; +200 μg/mL in Valspar QuikHide paint, 21 days): 5.0 ± 5.5
Average defacement rating ± standard deviation (Stachybotrys chartarum [5]; 7 days): 0.7 ± 1.3
Average defacement rating ± standard deviation (Stachybotrys chartarum [5]; 14 days): 0.0 ± 0.0
Average defacement rating ± standard deviation (Stachybotrys chartarum [5]; 21 days): 0.0 ± 0.0
Average defacement rating ± standard deviation (Alternaria alternata [6]; 7 days): 2.3 ± 2.3
Average defacement rating ± standard deviation (Alternaria alternata [6]; 14 days): 0.5 ± 1.8
Average defacement rating ± standard deviation (Alternaria alternata [6]; 21 days): 0.0 ± 0.0

Cc1ccc2c(c1)COB2O [Compound B1, 5-Methyl-1,3-dihydro-2,1-benzoxaborol-1-ol]
ability to inhibit Stachybotrys chartarum re-emergence on the surfaces (Stachybotrys chartarum [2]): very little ability to inhibit
MIC (Mucor spp.): 1 µg/mL (≈ 6.76 µM)
MIC (Fusarium oxysparum ST-33): 1 µg/mL (≈ 6.76 µM)
MIC (Aspergillus niger): 2 µg/mL (≈ 13.5 µM)
MIC (Aspergillus flavus): 2 µg/mL (≈ 13.5 µM)
MIC (Aspergillus fumigatus): 0.25 µg/mL (≈ 1.69 µM)
MIC (Rhizopus spp.): 16 µg/mL (≈ 108 µM)
MIC (Aureobasidium pullulans): 1 µg/mL (≈ 6.76 µM)
MIC (Stachybotrys chartarum [7]): 0.5 µg/mL (≈ 3.38 µM)
MIC (Alternaria alternata [8]): 6.3 µg/mL (≈ 42.6 µM)

OB1OCCc2cc(F)ccc21 [Compound B5, 6-fluoro-3,4-dihydro-1H-2,1-benzoxaborinin-1-ol]
ability to inhibit Stachybotrys chartarum re-emergence on the surfaces (Stachybotrys chartarum [2]): very little ability to inhibit
MIC (Stachybotrys chartarum [7]): 6.3 µg/mL (≈ 38 µM)
MIC (Alternaria alternata [8]): 200 µg/mL (≈ 1210 µM)
